In PMC8913300, “Two distinct classes of cochaperones compete for the EEVD motif in heat shock protein 70 to tune its chaperone activities” (The Journal of Biological Chemistry, 2022):
Values belong to the substance of their own block, whether it stands above or below them.

Columns and labels:
[1] = test system: Hsp72–DnaJB4 complex; assay: Luciferase refolding by Hsp72/DnaJB4 in the presence of TPR cochaperones; type: biochemical; details: 1 μM Hsp72, 100 nM denatured luciferase, 120 nM DnaJB4; CHIP titration or 10 μM TPR protein; 1 h at 37 °C
Method: (§1) Experiments were performed as described ([14]). Briefly, Renilla luciferase (Promega) was denatured in 8 M GdnHCl for 2 h at room temperature. Hsp72 (1 μM) and denatured luciferase (100 nM) were diluted into a working concentration in buffer containing an ATP regenerating system (23 mM Hepes, 120 mM KAc, 1.2 mM MgAc, 15 mM DTT, 61 mM creatine phosphate, 35 units/ml creatine kinase, and 5 ng/μl bovine serum albumin, pH 7.4). A titration series of DnaJB4 was added, and the reaction was initiated with the addition of 2.5 mM ATP. For competition assays with DnaJB4, complexes of Hsp72 (1 μM), denatured luciferase (100 nM), and DnaJB4 (120 nM) were incubated with either a titration of CHIP or 10 μM of indicated TPR protein. In all cases, the assay was allowed to incubate for 1 h at 37 °C in white, 96-well flat-bottom plates (Corning 3990). Luminescence was measured using the SteadyGlo luminescence reagent (Promega), and percent refolded luciferase was calculated using a standard curve of 100 to 0 nM native luciferase.

[2] = test system: denatured Renilla luciferase; assay: Luciferase refolding by Hsp72 variants in the presence of DnaJB4; type: biochemical; details: 1 μM Hsp72, 100 nM denatured luciferase, DnaJB4 titration, 1 h at 37 °C
Method: as §1

[3] = test system: Hsp72 ATPase activity; assay: Intrinsic ATPase activity of Hsp72 variants (malachite green); type: biochemical; details: 1 μM Hsp72, 2.5 mM ATP, 1 h at 37 °C, mean ± SD (n = 3)
Method: (§2) ATPase assays were carried out using the malachite green assay as described ([14], [83]). In brief, 1 μM Hsp72 and various concentrations of DnaJB4 were added to clear 96-well plates, and the reactions were initiated by addition of 2.5 mM ATP. Reactions were allowed to proceed for 1 h at 37 °C, after which they were developed using malachite green reagent and quenched with sodium citrate. Plate absorbance was measured at 620 nm, and a standard curve of sodium phosphate was used to convert the absorbance values to pmol ATP/μM Hsp72/min. Vmax and Km, app were derived as fit parameters to a modified Michaelis–Menten model (ATPase rate=Vmax∗[DnaJB4]/(Km, app+[DnaJB4])) where Vmax reflects the maximal increased ATP hydrolysis conferred by DnaJB4 binding and Km,app represents the half-maximal concentration of DnaJB4 binding to and stimulating the ATPase activity of Hsp72.

[4] = test system: denatured Renilla luciferase; assay: Luciferase refolding by Hsp72 variants in the presence of DnaJA2; type: biochemical; details: 1 μM Hsp72, 100 nM denatured luciferase, 1 h at 37 °C
[5] = molecular target: T1, CHIP (Homo sapiens, UniProt Q9UNE7); assay: CHIP FP competition (displacement of Hsp72 tracer); type: binding; details: 100 μM peptide, 1.58 μM CHIP, 20 nM Hsp72 tracer, 30 min room temperature
T1 construct: 6-His with TEV-cleavable linker (N, cleaved yes); made in house; host or cells: E. coli BL21(DE3)
T1 sequence (Q9UNE7 1-303): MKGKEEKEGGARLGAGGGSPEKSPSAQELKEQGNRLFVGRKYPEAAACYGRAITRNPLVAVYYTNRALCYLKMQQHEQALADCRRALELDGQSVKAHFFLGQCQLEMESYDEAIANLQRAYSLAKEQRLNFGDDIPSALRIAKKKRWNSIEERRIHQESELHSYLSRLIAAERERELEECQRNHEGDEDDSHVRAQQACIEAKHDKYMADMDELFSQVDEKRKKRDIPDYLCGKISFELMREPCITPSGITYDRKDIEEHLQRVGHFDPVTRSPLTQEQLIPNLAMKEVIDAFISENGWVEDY
Method: (§3) All FP experiments were performed in 384-well, black, low-volume, round-bottom plates at a final assay volume of 18 μl (Corning 4511). Polarization values in millipolarization units (mP) were measured at an excitation wavelength of 485 nm and an emission wavelength of 525 nm, with 100 flashes per read using a Spectramax M5 plate reader (Molecular Devices). All experiments were performed 2 times in quadruplicate. Experimental data were analyzed using GraphPad Prism 9. Saturation binding data were background subtracted, and curves were fit using the model [Agonist] versus response (three parameters). For competition experiments, data were background subtracted to tracer alone and normalized to DMSO control to determine relative tracer displacement.
Mixtures of 1.58 μM CHIP and 20 nM Hsp72 tracer were incubated with 100 μM unlabeled competitor peptides in CHIP FP assay buffer (50 mM Hepes pH 7.4, 50 mM KCl, 0.01% Triton X-100). The plate was covered from light and allowed to incubate at room temperature for 30 min prior to reading.

[6] = molecular target: T2, DnaJB4 (Homo sapiens, UniProt Q9UDY4); assay: DnaJB4 FP competition (displacement of Hsp72 tracer); type: binding; details: 100 μM peptide, 5 μM DnaJB4, 20 nM Hsp72 tracer, 30 min room temperature; for % tracer displacement: relative to DMSO control, mean ± SD (n = 4)
T2 construct: 6-His with TEV-cleavable linker (N, cleaved yes); made in house; host or cells: Escherichia coli BL21 (DE3) Rosetta
T2 sequence (Q9UDY4 whole entry): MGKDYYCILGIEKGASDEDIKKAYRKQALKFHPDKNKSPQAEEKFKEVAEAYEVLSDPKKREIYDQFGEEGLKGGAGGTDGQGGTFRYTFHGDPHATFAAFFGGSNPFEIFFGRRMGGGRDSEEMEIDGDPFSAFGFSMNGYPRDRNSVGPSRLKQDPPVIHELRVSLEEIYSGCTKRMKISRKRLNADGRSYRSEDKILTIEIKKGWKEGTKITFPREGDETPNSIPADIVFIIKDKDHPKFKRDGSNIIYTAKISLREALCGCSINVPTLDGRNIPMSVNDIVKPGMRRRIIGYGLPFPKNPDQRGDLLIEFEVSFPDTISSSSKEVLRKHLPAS
Method: as §3
Unlabeled peptides were assessed for the ability to compete with the Hsp72 tracer. Briefly, 100 μM peptides were incubated with 5 μM DnaJB4 and 20 nM Hsp72 tracer in JDP binding buffer (see above). The plate was covered from light and allowed to incubate at room temperature for 30 min prior to reading.

[7] = molecular target: T2, DnaJB4; assay: Differential scanning fluorimetry of DnaJB4 with chaperone peptides; type: binding; details: 5 μM DnaJB4, 100 μM peptide; for DnaJB4 apparent melting temperature (Tm,app): 5× Sypro Orange, JDP binding buffer, mean ± SD (n = 4), without peptide 57 ± 0.06 °C
Method: DSF was performed with a 15-μl assay volume in 384-well Axygen quantitative PCR plates (Fisher Scientific) on a qTower ([3]) real-time PCR thermal cycler (Analytik Jena). Fluorescence intensity readings were taken over 70 cycles in “up-down” mode, where reactions were heated to desired temperature and then cooled to 25 °C before reading. The temperature was increased 1 °C per cycle. Each well contained 5 μM DnaJB4, 5 × Sypro Orange dye (Thermo Fisher), and 100 μM of peptide in JDP binding buffer. Fluorescence intensity data were truncated between 45 and 70 °C, plotted relative to temperature, and fit to a Boltzmann Sigmoid in Prism 9.0 (GraphPad). DnaJB4 apparent melting temp (Tm,app) was calculated based on the following equation: Y = Bottom + ((Top-Bottom)/(1 + exp(Tm-T/Slope))).

[8] = test system: Hsp72 ΔEEVD; assay: DnaJB4 stimulation of ATPase activity of Hsp72 ΔEEVD (malachite green); type: biochemical; details: Hsp72 ΔEEVD mutant
Method: as §2

[9] = test system: WT Hsp72; assay: DnaJB4 stimulation of ATPase activity of WT Hsp72 (malachite green); type: biochemical
Method: as §2

[10] = test system: Hsp70–CHIP complex; assay: In vitro ubiquitination of Hsc70 by CHIP in the presence of DnaJB4; type: biochemical; details: 1 μM CHIP, 1 μM FAM-labeled Hsc70, increasing DnaJB4, 10 min room temperature
Method: (§4) Four 4 × stock solutions were prepared containing (i) Ube1 (R&D Systems) + UbcH5c/UBE2D3 (R&D Systems) (400 nM Ube1 and 4 μM UbcH5c), (ii) Ubiquitin (R&D Systems) (1 mM Ub), (iii) CHIP + substrate + DnaJB4 (4 μM CHIP, 4 μM substrate, varying concentrations of DnaJB4), and (iv) ATP + MgCl2 (10 mM ATP and 10 mM MgCl2) in ubiquitination assay buffer (50 mM Tris pH 8.0, 15 mM NaCl). CHIP + substrate + DnaJB4 solutions were allowed to equilibrate at room temperature for 30 min prior to initiating the reaction. Ubiquitination reactions were generated by adding 10 μl of each 4 × stock, in order from 1 to 4, for a final volume of 40 μl(100 nM Ube1, 1 μM UbcH5c, 250 μM ubiquitin, 2.5 mM ATP, 2.5 mM MgCl2, 1 μM CHIP and 1 μM substrate). […] Samples were separated by SDS-PAGE on 4% to 20% polyacrylamide gels (Bio-Rad) and analyzed by in-gel fluorescence on a Chemidoc Imager (Bio-Rad) using the SYBR green fluorescence setting or by staining with Coomassie blue reagent. Quantitation of substrate ubiquitination was performed by densitometry analysis in ImageJ (NIH), which was thresholded to a no-CHIP control.
(§5) Substrates for in vitro ubiquitination assays were labeled with 6-carboxyfluorescein (FAM) to enable in-gel fluorescence measurement of ubiquitination as described ([35]). […]

[11] = test system: MAPT/tau ubiquitination by CHIP; assay: In vitro ubiquitination of MAPT/tau by CHIP in the presence of DnaJB4; type: biochemical; details: 1 μM CHIP, tau substrate, 30 min room temperature
Method: Four 4 × stock solutions were prepared containing (i) Ube1 (R&D Systems) + UbcH5c/UBE2D3 (R&D Systems) (400 nM Ube1 and 4 μM UbcH5c), (ii) Ubiquitin (R&D Systems) (1 mM Ub), (iii) CHIP + substrate + DnaJB4 (4 μM CHIP, 4 μM substrate, varying concentrations of DnaJB4), and (iv) ATP + MgCl2 (10 mM ATP and 10 mM MgCl2) in ubiquitination assay buffer (50 mM Tris pH 8.0, 15 mM NaCl). CHIP + substrate + DnaJB4 solutions were allowed to equilibrate at room temperature for 30 min prior to initiating the reaction. Ubiquitination reactions were generated by adding 10 μl of each 4 × stock, in order from 1 to 4, for a final volume of 40 μl(100 nM Ube1, 1 μM UbcH5c, 250 μM ubiquitin, 2.5 mM ATP, 2.5 mM MgCl2, 1 μM CHIP and 1 μM substrate). Reactions were incubated at room temperature (10 min for chaperone ubiquitination, 30 min for tau ubiquitination), quenched in 20 μl 3 × SDS-PAGE loading buffer (188 mM Tris-HCl pH 6.8, 3% SDS, 30% glycerol, 0.01% bromophenol blue, 15% β-mercaptoethanol), and heated to 95 °C for 5 min. Samples were separated by SDS-PAGE on 4% to 20% polyacrylamide gels (Bio-Rad) and analyzed by in-gel fluorescence on a Chemidoc Imager (Bio-Rad) using the SYBR green fluorescence setting or by staining with Coomassie blue reagent. Quantitation of substrate ubiquitination was performed by densitometry analysis in ImageJ (NIH), which was thresholded to a no-CHIP control. […]

[12] = test system: Hsp72 I637A; assay: DnaJB4 stimulation of ATPase activity of Hsp72 I637A (malachite green); type: biochemical
Method: as §2

[13] = test system: Hsp90⍺ ubiquitination by CHIP; assay: In vitro ubiquitination of Hsp90⍺ by CHIP in the presence of DnaJB4; type: biochemical; details: 1 μM CHIP, 1 μM FAM-labeled Hsp90⍺, increasing DnaJB4, 10 min room temperature
Method: as §4, §5

effect on client (luciferase) refolding by Hsp72–DnaJB4 [1]: suppressed luciferase refolding
Substance: HOP: Hsc70 organizing protein, TPR cochaperone

ability to coordinate with DnaJB4 in luciferase refolding [2]: nearly completely impaired
luciferase refolding in the presence of DnaJA2 [4]: comparably with WT
Substance: Hsp72 I637A: full-length Hsp72 with point mutation of the critical P5 isoleucine residue
intrinsic ATPase activity [3]: 15.8 ± 3.9 pmol ATP/min

ability to coordinate with DnaJB4 in luciferase refolding [2]: nearly completely impaired
Substance: Hsp72 ΔEEVD: mutant of full-length Hsp72 in which the EEVD motif was deleted
intrinsic ATPase activity [3]: 4.6 ± 1.9 pmol ATP/min

binding to DnaJB4 in FP competition relative to WT Hsp72 peptide [6]: drastically reduced binding
Substance: GSGPTIEEVD-CONH2 [peptide with an amidated Hsp72 C terminus]
binding to CHIP in FP competition relative to WT Hsp72 peptide [5]: carboxylate was important for binding to CHIP

% tracer displacement [6]: 40.2 ± 4.6%
DnaJB4 apparent melting temperature (Tm,app) [7]: 58 ± 0.21 °C
positive shift in the melt curves ([7]; versus no peptide): 1 to 2 °C
Substance: GSGPTIEEVD [Hsp72, unlabeled, N-acetylated 10-mer peptide corresponding to the C terminus of Hsp72/HSPA1A]

binding to DnaJB4 in FP competition relative to WT Hsp72 peptide [6]: further worsened it
Substance: IEEVD

% tracer displacement [6]: −7.7 ± 1.5%
DnaJB4 apparent melting temperature (Tm,app) [7]: 57 ± 0.15 °C
Substance: Hsp90⍺: unlabeled, N-acetylated 10-mer peptide corresponding to the C terminus of Hsp90⍺

Substance: WT Hsp72: full-length recombinant Hsp72/HSPA1A
intrinsic ATPase activity [3]: 10.9 ± 2.8 pmol ATP/min

binding to DnaJB4 in FP competition relative to WT Hsp72 peptide [6]: significantly weakened affinity
Substance: TIEEVD

% tracer displacement [6]: −1.3 ± 2.2%
DnaJB4 apparent melting temperature (Tm,app) [7]: 57 ± 0.20 °C
Substance: Hsp90β: unlabeled, N-acetylated 10-mer peptide corresponding to the C terminus of Hsp90β

Substance: DnaJB4: representative class B J-domain protein, recombinant, full length
stimulation of ATPase activity [8]: unable to stimulate
stimulation of Vmax,app over baseline ([9]; WT Hsp72): ~4 fold
maximum ATPase activity (Vmax,app) ([9]; WT Hsp72 1 μM, DnaJB4 titration, 2.5 mM ATP, 1 h at 37 °C, Michaelis–Menten fit): 37.8 ± 3.5 pmol ATP/min
Km ([9]; WT Hsp72 1 μM, DnaJB4 titration, Michaelis–Menten fit, read-out: half-maximal concentration (Km,app)): ~0.06 µM
effect on Hsp70 ubiquitination by CHIP [10]: dose-dependent inhibition
effect on ubiquitination of Hsc70 and tau by CHIP [11]: suppressed
Vmax,app above baseline ([12]; Hsp72 I637A): ~2 fold
Vmax,app ([12]; Hsp72 I637A 1 μM, DnaJB4 titration, 2.5 mM ATP, 1 h at 37 °C, Michaelis–Menten fit): 23.9 ± 3.6 pmol ATP/min
Km ([12]; Hsp72 I637A 1 μM, DnaJB4 titration, Michaelis–Menten fit, read-out: Km,app): ~0.01 µM
effect on Hsp90 ubiquitination by CHIP [13]: no effect
